What was measured:
[1] = biological target: Multidrug resistance protein 1a (Rattus norvegicus) (UniProt Q6PSM0); assay: TP_TRANSPORTER: Northern blot in vitro, nonparenchymal ral liver epithelial cells; type: functional; conditions: Epithelial cell
[2] = biological target: ATP-dependent translocase ABCB1 (Rattus norvegicus, UniProt P43245); assay: TP_TRANSPORTER: RT-PCR in vitro, nonparenchymal rat liver epithelial cells; type: functional, tissue-based; conditions: epithelial cell
[3] = biological target: Multidrug resistance protein 1a (Rattus norvegicus) (UniProt Q6PSM0); assay: TP_TRANSPORTER: Western in vitro, nonparenchymal rat liver epithelial cells; type: functional, tissue-based; conditions: Epithelial cell

Sequence of Multidrug resistance protein 1a (Rattus norvegicus) (Q6PSM0 as listed by the source): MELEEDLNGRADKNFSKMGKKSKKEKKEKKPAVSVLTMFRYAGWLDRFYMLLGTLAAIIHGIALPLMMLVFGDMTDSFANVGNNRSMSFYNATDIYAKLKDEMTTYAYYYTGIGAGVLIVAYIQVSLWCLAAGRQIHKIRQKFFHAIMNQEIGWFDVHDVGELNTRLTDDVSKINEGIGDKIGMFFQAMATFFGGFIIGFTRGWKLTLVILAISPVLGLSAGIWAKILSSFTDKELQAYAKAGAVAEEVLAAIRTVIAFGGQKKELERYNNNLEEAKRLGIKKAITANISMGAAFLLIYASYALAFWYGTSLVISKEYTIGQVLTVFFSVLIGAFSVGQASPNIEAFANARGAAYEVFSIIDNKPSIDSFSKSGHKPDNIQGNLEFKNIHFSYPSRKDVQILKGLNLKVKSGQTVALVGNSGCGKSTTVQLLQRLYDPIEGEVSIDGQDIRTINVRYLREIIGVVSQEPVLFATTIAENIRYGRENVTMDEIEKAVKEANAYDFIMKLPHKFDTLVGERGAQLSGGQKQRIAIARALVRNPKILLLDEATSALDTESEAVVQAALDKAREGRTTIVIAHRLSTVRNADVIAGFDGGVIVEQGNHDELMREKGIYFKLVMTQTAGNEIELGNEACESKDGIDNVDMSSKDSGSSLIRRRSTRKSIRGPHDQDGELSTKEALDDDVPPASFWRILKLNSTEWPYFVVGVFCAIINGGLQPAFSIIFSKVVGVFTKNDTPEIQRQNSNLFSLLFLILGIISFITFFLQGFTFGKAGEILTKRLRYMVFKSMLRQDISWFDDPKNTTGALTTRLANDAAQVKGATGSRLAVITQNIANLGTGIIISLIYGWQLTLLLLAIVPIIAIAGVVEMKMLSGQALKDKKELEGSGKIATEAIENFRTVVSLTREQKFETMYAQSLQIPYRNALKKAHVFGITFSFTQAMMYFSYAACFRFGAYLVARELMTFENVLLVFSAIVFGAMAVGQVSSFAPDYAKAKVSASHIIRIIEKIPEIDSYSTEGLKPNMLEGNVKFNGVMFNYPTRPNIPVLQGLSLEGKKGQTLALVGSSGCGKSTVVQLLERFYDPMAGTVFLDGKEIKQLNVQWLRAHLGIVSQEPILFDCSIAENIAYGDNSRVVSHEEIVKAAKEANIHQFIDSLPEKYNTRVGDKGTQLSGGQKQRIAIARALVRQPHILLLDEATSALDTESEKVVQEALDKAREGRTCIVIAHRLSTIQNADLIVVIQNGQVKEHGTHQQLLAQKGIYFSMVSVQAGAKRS
Sequence of ATP-dependent translocase ABCB1 (P43245 whole entry): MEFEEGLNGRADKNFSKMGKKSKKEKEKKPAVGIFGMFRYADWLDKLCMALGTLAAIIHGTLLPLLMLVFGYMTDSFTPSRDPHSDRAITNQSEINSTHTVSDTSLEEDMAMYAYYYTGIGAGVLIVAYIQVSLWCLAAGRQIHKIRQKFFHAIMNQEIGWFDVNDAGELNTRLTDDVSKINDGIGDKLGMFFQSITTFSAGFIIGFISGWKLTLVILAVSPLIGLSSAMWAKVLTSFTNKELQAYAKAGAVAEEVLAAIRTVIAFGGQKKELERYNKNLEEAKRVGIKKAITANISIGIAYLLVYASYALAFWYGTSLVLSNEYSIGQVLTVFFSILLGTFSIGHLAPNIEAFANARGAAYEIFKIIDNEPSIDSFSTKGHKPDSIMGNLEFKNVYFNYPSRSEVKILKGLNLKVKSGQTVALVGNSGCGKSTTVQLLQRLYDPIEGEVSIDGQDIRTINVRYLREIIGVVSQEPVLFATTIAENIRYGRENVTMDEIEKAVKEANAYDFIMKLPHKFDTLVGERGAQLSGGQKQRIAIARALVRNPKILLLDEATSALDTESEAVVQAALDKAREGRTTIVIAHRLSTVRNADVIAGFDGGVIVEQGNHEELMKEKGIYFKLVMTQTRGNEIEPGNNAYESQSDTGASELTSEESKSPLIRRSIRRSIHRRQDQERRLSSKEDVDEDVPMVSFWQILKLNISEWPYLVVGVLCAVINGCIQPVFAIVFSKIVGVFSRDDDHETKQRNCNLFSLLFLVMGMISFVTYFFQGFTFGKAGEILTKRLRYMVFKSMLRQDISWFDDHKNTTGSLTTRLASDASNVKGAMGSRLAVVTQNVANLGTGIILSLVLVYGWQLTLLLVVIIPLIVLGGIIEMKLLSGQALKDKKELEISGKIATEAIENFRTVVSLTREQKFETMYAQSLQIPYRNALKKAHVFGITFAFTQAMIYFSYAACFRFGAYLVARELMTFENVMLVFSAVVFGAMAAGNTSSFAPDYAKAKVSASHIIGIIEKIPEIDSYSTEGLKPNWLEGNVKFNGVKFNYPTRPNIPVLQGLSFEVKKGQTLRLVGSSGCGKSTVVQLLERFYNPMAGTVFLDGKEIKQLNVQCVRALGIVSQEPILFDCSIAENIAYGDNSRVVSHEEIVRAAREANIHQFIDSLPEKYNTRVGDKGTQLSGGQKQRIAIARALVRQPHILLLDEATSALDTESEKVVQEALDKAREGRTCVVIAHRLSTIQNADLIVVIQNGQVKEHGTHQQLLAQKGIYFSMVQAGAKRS

With `C[C@@H]1C[C@@H]([C@H](O)CC2CC(=O)NC(=O)C2)C(=O)[C@@H](C)C1` the Activity [1] was “inducer [+]”.
`c1ccc2c(c1)cc1ccc3cccc4ccc2c1c34` was tested, and the Activity [1] was “inducer [+]”.
`Cc1ccc2cc3c(ccc4ccccc43)c3c2c1CC3` [3-METHYLCHOLANTHRENE] was tested, and the Activity [2] was “inducer [+]” and the Activity [3] was “inducer [+]”.
